Measured values published in ChEMBL document CHEMBL5042495, “Lead Optimization of Influenza Virus RNA Polymerase Inhibitors Targeting PA-PB1 Interaction” (J Med Chem, 2022).

What was measured:
[1] = Cytotoxicity in dog MDCK cells assessed as reduction in cell viability incubated for 48 hrs by crystal violet staining based assay; assay type: toxicity, Canis lupus familiaris
Influenza A virus = assay: Antiviral activity against Influenza A virus A/WSN/33(H1N1) strain infected in MDCK cells assessed as reduction in viral infection incubated for 48 hrs by crystal violet staining based assay; assay type: functional, organism-based

SMILES	CC50 at 48 h [1]	EC50 (Influenza A virus)
CCc1ccc2[nH]c(=O)c(CN(Cc3ccc(C(C)(C)C)cc3)[C@@H](C)c3ccc(F)cc3)cc2c1	> 5 µM	0.79 µM
COc1ccc(C(C)N(Cc2ccc(C(C)(C)C)cc2)Cc2cc3cc(C4CC4)ccc3[nH]c2=O)cc1Cl (stereo unspecified)	> 10 µM	0.069 µM
CCc1ccc2[nH]c(=O)c(CN(Cc3ccc(C(C)(C)C)cc3)C(C)c3ccc(OC)c(Cl)c3)cc2c1 (stereo unspecified)	> 10 µM	0.17 µM
Cc1ccc2[nH]c(=O)c(CN(Cc3ccc(C(C)(C)C)cc3)C(C)c3ccc(N(C)C)c(Cl)c3)cc2c1 (stereo unspecified)	9.8 µM	0.12 µM
CSc1ccc(CN(Cc2ccc(C(C)(C)C)cc2)Cc2cc3cc(C)ccc3[nH]c2=O)cc1	> 5 µM	0.51 µM
Cc1ccc2cc(C(C#N)N(Cc3ccccc3)Cc3ccc(C(C)C)cc3)c(=O)[nH]c2c1 (stereo unspecified)	> 83 µM	5.6 µM
Cc1cccc2cc(C(C#N)N(Cc3ccccc3)Cc3ccc(C(C)C)cc3)c(=O)[nH]c12 (stereo unspecified)	> 83 µM	16 µM
CCc1ccc2[nH]c(=O)c(CN(Cc3ccc(OCOC)cc3)Cc3ccc(C(C)(C)C)cc3)cc2c1	> 10 µM	1 µM
Cc1ccc2[nH]c(=O)c(CN(Cc3ccc(F)cc3)Cc3cccc4ccccc34)cc2c1	> 5 µM	1.8 µM
CCOc1ccc(CN(Cc2ccc(C(C)(C)C)cc2)Cc2cc3cc(C)ccc3[nH]c2=O)cc1	> 10 µM	0.54 µM
C[C@@H](c1ccc(OC(F)(F)F)cc1)N(Cc1ccc(C(F)(F)F)c(Cl)c1)Cc1cc2cc(C3CC3)ccc2[nH]c1=O	7.9 µM	0.12 µM
CCc1ccc2[nH]c(=O)c(CN(Cc3ccc(O)cc3)Cc3ccc(C(C)(C)C)cc3)cc2c1	> 10 µM	1.8 µM
Cc1ccc2cc(C(C#N)N(Cc3ccc(F)cc3)Cc3ccc(C(C)C)cc3)c(=O)[nH]c2c1 (stereo unspecified)	21 µM	54 µM
Cc1ccc2cc(CN(Cc3ccc(F)cc3)Cc3ccc(C(C)C)cc3)c(=O)[nH]c2c1	> 33 µM	2 µM
CN(C)c1ccc(CN(Cc2ccc(C(C)(C)C)cc2)Cc2cc3cc(Cl)ccc3[nH]c2=O)cc1	> 10 µM	1.5 µM
CCc1ccc2[nH]c(=O)c(CN(Cc3ccc(F)cc3)Cc3cccc4ccccc34)cc2c1	> 5 µM	–
Cc1ccc2[nH]c(=O)c(CN(Cc3ccc(C(C)(C)C)cc3)[C@H](CO)c3ccccc3)cc2c1	> 10 µM	–
Cc1ccc2[nH]c(=O)c(C(C#N)N(Cc3ccccc3)Cc3ccc(C(C)C)cc3)cc2c1 (stereo unspecified)	> 83 µM	15 µM
CC(C)(C)c1ccc(CN(Cc2ccc(C(F)(F)F)c(Cl)c2)Cc2cc3cc(C4CC4)ccc3[nH]c2=O)cc1	> 10 µM	0.63 µM

SMILES	CC50 at 48 h [1]	EC50 (Influenza A virus)
CC(C)c1ccc2[nH]c(=O)c(CN(Cc3ccc(C(C)(C)C)cc3)C(C)c3ccc(N(C)C)c(Cl)c3)cc2c1 (stereo unspecified)	> 10 µM	0.68 µM
CCc1ccc(CN(Cc2ccc(F)cc2)Cc2cc3ccc(C)cc3[nH]c2=O)cc1	> 33 µM	1.8 µM
COc1ccc(CN(Cc2ccc(C(C)(C)C)cc2)Cc2cc3ccccc3[nH]c2=O)cc1	1.8 µM	–
CCc1ccc2[nH]c(=O)c(CN(Cc3ccc(F)cc3)Cc3ccc(-c4ccccc4)cc3)cc2c1	> 5 µM	–
CC(c1ccc(N(C)C)c(Cl)c1)N(Cc1ccc(C(C)(C)C)cc1)Cc1cc2cc(Br)ccc2[nH]c1=O (stereo unspecified)	6.1 µM	0.1 µM
Cc1ccc2cc(CN(Cc3ccc(Cl)cc3)Cc3ccc(C(C)C)cc3)c(=O)[nH]c2c1	> 33 µM	6.1 µM
COc1ccc(CN(Cc2ccc(C(C)(C)C)cc2)Cc2cc3cc(C)ccc3[nH]c2=O)cc1	> 10 µM	0.33 µM
Cc1ccc2[nH]c(=O)c(CN(Cc3ccccc3)Cc3ccc(C(C)(C)C)cc3)cc2c1	> 5 µM	0.92 µM
CC(C)c1ccc2[nH]c(=O)c(CN(Cc3ccc(C(C)(C)C)cc3)C(C)c3ccc(F)cc3)cc2c1 (stereo unspecified)	13.1 µM	5.4 µM
Cc1ccc2cc(CN(Cc3ccc(Cl)cc3)Cc3ccc(Cl)cc3)c(=O)[nH]c2c1	> 33 µM	–
C[C@H](c1ccc(OC(F)(F)F)cc1)N(Cc1ccc(C(C)(C)C)cc1)Cc1cc2cc(C3CC3)ccc2[nH]c1=O	–	2.01 µM
CCCCOc1ccc(CN(Cc2ccc(C(C)(C)C)cc2)Cc2cc3cc(C)ccc3[nH]c2=O)cc1	> 5 µM	–
Cc1ccc2cc(CN(Cc3ccc(C(C)(C)C)cc3)C3CCCC3)c(=O)[nH]c2c1	> 10 µM	–
CCc1ccc2[nH]c(=O)c(CN(CCCO)Cc3ccc(C(C)(C)C)cc3)cc2c1	> 10 µM	–
CCc1ccc2[nH]c(=O)c(CN(Cc3ccc(C(C)(C)C)cc3)[C@H](CO)c3ccccc3)cc2c1	> 10 µM	–
Cc1cccc2cc(CN(Cc3ccc(F)cc3)Cc3ccc(C(C)(C)C)cc3)c(=O)[nH]c12	–	1.8 µM
CCc1ccc2[nH]c(=O)c(CN(Cc3ccc(C(C)(C)C)cc3)[C@H](C)c3ccc(F)cc3)cc2c1	> 5 µM	–
CCc1ccc2cc(CN(Cc3ccc(C(C)(C)C)cc3)C3CCCC3)c(=O)[nH]c2c1	> 9 µM	–
